Numbering of substitutions follows the chain as printed. The source made the active and inactive calls. The rule behind the calls is not given here. Numbered stars: 1 amine (or outer) side, 2 acyl side, 3 side chain; on linkers, the order of the positions; unused ones are H or OH. Bridge positions count the residues as written; N and C are the ends. Square brackets hold non-standard residues; d marks the D form. Peptide text beside a SMILES is read from it. I, II: the chains in the order shown. Suberoyl = O=C(CCCCCCC(=O)[*:2])[*:1]; Mpa = O=C(O)CCS
Assays:
[1] = target: T1, Oxytocin receptor (Homo sapiens) (UniProt P30559); experiment: Ratio of EC50 for human oxytocin receptor high affinity site expressed in HEK293 cells coexpressing Rluc8-tagged Galphaq, N-terminal GFP-tagged Ggamma2 and Gbeta1 protein to Ki for human oxytocin receptor high affinity site expressed in COS7 cell membrane; assay type: cell-based
T1 sequence (whole entry): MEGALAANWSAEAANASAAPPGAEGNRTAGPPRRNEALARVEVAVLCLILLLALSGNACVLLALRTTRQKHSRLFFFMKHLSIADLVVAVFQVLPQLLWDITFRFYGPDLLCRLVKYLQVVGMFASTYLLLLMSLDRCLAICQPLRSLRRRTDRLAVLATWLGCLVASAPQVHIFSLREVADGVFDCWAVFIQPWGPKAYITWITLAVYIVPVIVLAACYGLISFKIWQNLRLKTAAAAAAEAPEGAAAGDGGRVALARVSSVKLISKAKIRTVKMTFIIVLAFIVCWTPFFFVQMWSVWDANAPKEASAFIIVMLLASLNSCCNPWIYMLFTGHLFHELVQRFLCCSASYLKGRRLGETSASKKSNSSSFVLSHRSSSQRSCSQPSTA

Mus musculus [2] = organism: Mus musculus; experiment: Potency index, ratio of oxytocin dose to compound dose for OXTR+/- DBA/2J mouse assessed as increase in time spent exploring stranger mouse over time spent exploring empty cage; assay type: functional
Danio rerio [3] = experiment: Effect on social behavior in zebra fish assessed as increase in time spent swimming parallel to nacre mutant fish over time spent shoaling close to wild type fish at 0.2 ng/kg, im; assay type: functional, organism-based
[4] = test system: T2, Oxytocin receptor (Homo sapiens), P30559 [C47A]; experiment: (§1) Agonist activity at human oxytocin receptor C47A mutant expressed in HEK293 cells coexpressing Rluc8-tagged Galphaq, N-terminal GFP-tagged Ggamma2 and Gbeta1 protein incubated for 2 mins by Gq protein activation based BRET assay; assay type: cell-based; parameters: unit not given here
T2 sequence (whole entry): T1 sequence (whole entry) with C47A

Oxytocin receptor [5] = target: Oxytocin receptor (Homo sapiens, UniProt P30559, C47A); experiment: as §1; assay type: cell-based
Chain of Oxytocin receptor (Homo sapiens, UniProt P30559, C47A) (P30559 whole entry C47A): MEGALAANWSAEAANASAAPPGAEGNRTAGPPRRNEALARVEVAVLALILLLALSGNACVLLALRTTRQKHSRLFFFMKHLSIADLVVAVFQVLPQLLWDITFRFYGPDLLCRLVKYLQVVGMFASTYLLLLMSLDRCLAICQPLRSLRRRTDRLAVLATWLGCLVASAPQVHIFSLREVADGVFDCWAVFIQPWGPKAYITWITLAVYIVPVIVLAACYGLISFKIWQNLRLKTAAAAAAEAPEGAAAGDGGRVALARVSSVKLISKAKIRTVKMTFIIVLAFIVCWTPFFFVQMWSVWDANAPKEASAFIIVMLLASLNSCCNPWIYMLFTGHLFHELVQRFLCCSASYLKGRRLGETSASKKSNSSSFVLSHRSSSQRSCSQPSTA

Oxytocin receptor [6] = target: T3, Oxytocin receptor (Homo sapiens, UniProt P30559); experiment: Agonist activity at human oxytocin receptor high affinity site expressed in HEK293 cells coexpressing Rluc8-tagged Galphaq, N-terminal GFP-tagged Ggamma2 and Gbeta1 protein incubated for 2 mins in presence of TMH5-TAT peptide by Gq protein activation based BRET assay; assay type: cell-based
T3 sequence (P30559 whole entry): T1 sequence (whole entry)

[7] = target: T1, Oxytocin receptor (Homo sapiens); experiment: Displacement of [125I]-OVTA from human oxytocin receptor expressed in COS7 cell membrane; assay type: cell membranes
Danio rerio [8] = organism: Danio rerio; experiment: Potency index, ratio of isotocin dose to compound dose for effect on shoaling behavior in zebra fish; assay type: functional
Mus musculus [9] = experiment: Effect on social behavior in OXTR+/- DBA/2J mouse assessed as increase in time spent exploring stranger mouse over time spent exploring empty cage at 0.005 ng/mouse, icv measured for 10 mins by three chamber method; assay type: functional, organism-based
[10] = target: T1, Oxytocin receptor (Homo sapiens); experiment: Ratio of EC50 for human oxytocin receptor low affinity site expressed in HEK293 cells coexpressing Rluc8-tagged Galphaq, N-terminal GFP-tagged Ggamma2 and Gbeta1 protein to Ki for human oxytocin receptor low affinity site expressed in COS7 cell membrane; assay type: cell-based
[11] = test system: T4, Oxytocin receptor (Homo sapiens), P30559 [V43A,C47A]; experiment: (§2) Agonist activity at human oxytocin receptor V43A/C47A double mutant expressed in HEK293 cells coexpressing Rluc8-tagged Galphaq, N-terminal GFP-tagged Ggamma2 and Gbeta1 protein incubated for 2 mins by Gq protein activation based BRET assay; assay type: cell-based; parameters: unit not given here
T4 sequence (whole entry): T1 sequence (whole entry) with V43A, C47A

Oxytocin receptor [12] = target: Oxytocin receptor (Homo sapiens, UniProt P30559, C47A/V43A); experiment: as §2; assay type: cell-based
Chain of Oxytocin receptor (Homo sapiens, UniProt P30559, C47A/V43A) (P30559 whole entry V43A/C47A): as the sequence (P30559 whole entry C47A) above, with V43A counted along it

Oxytocin receptor [13] = target: T3, Oxytocin receptor; experiment: Agonist activity at human oxytocin receptor low affinity site expressed in HEK293 cells coexpressing Rluc8-tagged Galphaq, N-terminal GFP-tagged Ggamma2 and Gbeta1 protein incubated for 2 mins in presence of TMH5-TAT peptide by Gq protein activation based BRET assay; assay type: cell-based
[14] = target: T1, Oxytocin receptor (Homo sapiens); experiment: Agonist activity at human oxytocin receptor expressed in HEK293 cells coexpressing Rluc8-tagged Galphaq, N-terminal GFP-tagged Ggamma2 and Gbeta1 protein incubated for 2 mins in presence of TMH5-TAT peptide by Gq protein activation based BRET assay; assay type: cell-based; parameters: unit not given here
[15] = target: T1, Oxytocin receptor (Homo sapiens); experiment: Agonist activity at human oxytocin receptor expressed in HEK293 cells coexpressing Rluc8-tagged Galphaq, N-terminal GFP-tagged Ggamma2 and Gbeta1 protein incubated for 2 mins by Gq protein activation based BRET assay; assay type: cell-based; parameters: unit not given here
[16] = target: T1, Oxytocin receptor (Homo sapiens); experiment: (§3) Agonist activity at human oxytocin receptor expressed in HEK293 cells coexpressing Rluc8-tagged Galphaq, N-terminal GFP-tagged Ggamma2 and Gbeta1 protein incubated for 2 mins in presence of TMH1-TAT peptide by Gq protein activation based BRET assay; assay type: cell-based; parameters: unit not given here
Oxytocin receptor [17] = target: T3, Oxytocin receptor; experiment: as §3; assay type: cell-based
Oxytocin receptor [18] = target: T3, Oxytocin receptor; experiment: Agonist activity at human oxytocin receptor low affinity site expressed in HEK293 cells coexpressing Rluc8-tagged Galphaq, N-terminal GFP-tagged Ggamma2 and Gbeta1 protein incubated for 2 mins by Gq protein activation based BRET assay; assay type: cell-based
Oxytocin receptor [19] = target: T3, Oxytocin receptor; experiment: Agonist activity at human oxytocin receptor high affinity site expressed in HEK293 cells coexpressing Rluc8-tagged Galphaq, N-terminal GFP-tagged Ggamma2 and Gbeta1 protein incubated for 2 mins by Gq protein activation based BRET assay; assay type: cell-based

Ratio [1]: 10 | Emax [4]: -0.14 | EC50 (Oxytocin receptor [5]): 40.5 nM | EC50 (Oxytocin receptor [6]): 0.0118 nM | KiH [7]: 0.08 pM | KiL [7]: 1.24 nM | Ratio [10]: 10 | Emax [11]: -0.1 | EC50 (Oxytocin receptor [12]): 117 nM | EC50 (Oxytocin receptor [13]): 33.4 nM | Emax [14]: -0.15 | Emax [15]: -0.11 | Emax [16]: -0.16 | EC50 (Oxytocin receptor [17]): 19.3 nM | EC50 (Oxytocin receptor [18]): 67.3 nM | EC50 (Oxytocin receptor [19]): 0.0008 nM
SMILES: CC[C@H](C)[C@@H]1NC(=O)[C@H](Cc2ccc(O)cc2)NC(=O)CCSSC[C@@H](C(=O)N2CCC[C@H]2C(=O)N[C@@H](CCCCNC(=O)CCCCCCC(=O)NCCCC[C@H](NC(=O)[C@@H]2CCCN2C(=O)[C@@H]2CSSCCC(=O)N[C@@H](Cc3ccc(O)cc3)C(=O)N[C@@H]([C@@H](C)CC)C(=O)N[C@@H](CCC(N)=O)C(=O)N[C@@H](CC(N)=O)C(=O)N2)C(=O)NCC(N)=O)C(=O)NCC(N)=O)NC(=O)[C@H](CC(N)=O)NC(=O)[C@H](CCC(N)=O)NC1=O (I: [Mpa]YIQNCPKG-NH2 / II: [Mpa]YIQNCPKG-NH2; disulfide I:1-I:6, II:1-II:6; linker I:8-II:8 via Suberoyl)
Ratio (Mus musculus [2]): 100 | Activity (Danio rerio [3]): Active | Ratio (Danio rerio [8]): 40 | Activity (Mus musculus [9]): Active
